Patent publication US20230405201A1, “TECHNIQUES FOR INCREASING RED BLOOD CELL COUNT” (FRESENIUS MEDICAL CARE HOLDINGS, INC., priority 2020, published 2023)
Read-outs that look alike come from different tables or passages of the source.

What was measured:
[1] = Serum concentration of CMPF in normal and uremic subjects; format: in vivo, human; conditions: uremic versus average normal concentration
Method: FIG. 4 illustrates carboxy-4-methyl-5-propyl-2-furanpropionate (CMPF) 401 in accordance with the present disclosure. CMPF is a 240 Da metabolite of furan fatty acids and a protein-bound uremic retention solute normally cleared by the healthy kidney. In CKD patients, CMPF levels are increased 5- to 15-fold compared to healthy subjects.
An average normal concentration for CMPF may be a mean (±SD) of about 4.6±1.8 with a range between about 3.6 and 7.7 mg/L. In uremic patients the mean concentration (CU) is about 25.9±10.2 mg/L (with a range of about 3.7 to 94 mg/L).
Accordingly, the relative increase (CU/CN) may be over 5-times higher than the average normal concentration. […] As much as 99.5% of all CMPF may be found bound to HSA in serum. Consequently, this high association to HSA may prevent a sufficient secretion due to lower renal clearance rates in uremic patients, for example, at a rate of about 0.05 mL/min, compared to 0.40 mL/min for healthy patients. Due to its strong binding affinity to HSA, the removal of CMPF through conventional hemodialysis is generally difficult and even practically ineffective.

[2] = cited from earlier work
HSA = target: T1, HSA (Homo sapiens, UniProt P02768); conditions: cited from earlier work
T1 construct: from tissue; host or cells: serum
T1 sequence (P02768 25-609): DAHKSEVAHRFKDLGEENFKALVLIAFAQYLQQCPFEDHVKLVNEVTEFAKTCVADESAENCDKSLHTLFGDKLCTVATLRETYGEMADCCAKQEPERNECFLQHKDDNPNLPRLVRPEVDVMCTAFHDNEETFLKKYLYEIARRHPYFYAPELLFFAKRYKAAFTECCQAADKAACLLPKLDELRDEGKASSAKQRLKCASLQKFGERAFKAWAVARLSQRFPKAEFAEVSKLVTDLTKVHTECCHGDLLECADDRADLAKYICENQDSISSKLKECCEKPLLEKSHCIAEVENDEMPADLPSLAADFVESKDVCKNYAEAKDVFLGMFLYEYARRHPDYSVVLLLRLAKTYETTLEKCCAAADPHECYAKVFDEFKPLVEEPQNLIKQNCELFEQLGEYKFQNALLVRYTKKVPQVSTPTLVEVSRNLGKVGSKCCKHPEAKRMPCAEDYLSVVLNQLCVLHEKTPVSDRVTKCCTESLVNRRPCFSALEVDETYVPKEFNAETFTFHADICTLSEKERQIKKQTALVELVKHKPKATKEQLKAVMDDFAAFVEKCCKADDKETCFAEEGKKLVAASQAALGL

[3] = cited from earlier work; remark: listed apart in the source
[4] = target: human serum albumin (HSA) (Homo sapiens, UniProt P02768); conditions: cited from earlier work
Sequence of human serum albumin (HSA) (P02768 25-609): as above

HSA's binding site 1 = HSA's binding site 1 (Homo sapiens, UniProt P02768); conditions: cited from earlier work
Sequence of HSA's binding site 1 (P02768 25-609): as above

Piezo1 = conditions: cited from earlier work

CCCc1oc(CCC(=O)O)c(C(=O)O)c1C [CMPF, 3-carboxy-4-methyl-5-propyl-2-furanpropionate]
relative increase (CU/CN) [1]: over 5 times | renal clearance rate ([2]; healthy patients): 0.40 mL/min | renal clearance rate ([2]; uremic patients): about 0.05 mL/min | CMPF found bound to HSA in serum (HSA): ≤ 99.5% | average normal concentration, mean (±SD) ([3]; normal): about 4.6±1.8 mg/L | mean concentration (CU) ([3]; uremic patients): about 25.9±10.2 mg/L | constant of association with HSA molecules [4]: about 10^8 M^−1

CC(C)C1=CC(=O)C2(C)C(C1=O)C1(C)C(=O)C=C(C(C)C)C(=O)C21 (centres unmarked) [DTQ, dithymoquinone]
binding affinity towards HSA's binding site 1 relative to CMPF (HSA's binding site 1): higher binding affinity towards HSA's binding site 1 than CMPF

Cc1oc(-c2ccccc2)cc1C(=O)O [Jedi1]
Piezo1 stimulation (Piezo1): stimulate Piezo1

Cc1oc(-c2cccs2)cc1C(=O)O [Jedi2]
Piezo1 stimulation (Piezo1): stimulate Piezo1

Clc1cccc(Cl)c1CSc1nnc(-c2cnccn2)s1 [Yoda1]
Piezo1 stimulation (Piezo1): stimulate Piezo1
